Laboratory results from patent publication US8518923B2, “Treatment or prevention of hypertensive disorders of pregnancy or fetal growth retardation” (Pantarhei Bioscience B.V., priority 2007, dated 2013).

Legend:
[1] = tested on: Myometrial arteries; assay: Ex-vivo relaxation response in myometrial arteries on pressure myograph; set-up: species or system human; settings: for relaxation in myometrial arteries: arteries from normal pregnant women, pressure myograph, concentration response (FIG. 1)
Source text: (§1) To evaluate acute dilatory responses to estetrol in human vasculature ex-vivo, the following study has been conducted. Myometrial arteries and subcutaneous arteries (diameter: 220 μm; length: 2-3 mm) were dissected from normal pregnant women undergoing planned caesarian section. Myometrial arteries are present in the uterus and are branches from the arteria uterina. Cigarette smokers and women with hypertension, diabetes mellitus, clinical manifestations of arteriosclerosis (CHD, peripheral artery disease, cerebrovascular disease), venous thromboembolic disease, liver disorders, unexplained vaginal bleeding, and personal or family history of breast cancer were excluded. None had received HRT, other steroid hormones, or any medication known to affect lipoprotein metabolism or blood pressure. The dissected arteries were mounted on a pressure myograph (LSI, USA). The organ bath was perfused (7 ml/min) with PSS (mM: NaCl 119, KCl 4.7, CaCl2 2.5, MgSO4 1.17, NaHCO3 25, KH2PO4 1.18, EDTA 0.026 and glucose 5.5; pH 7.4, 37° C., gassed with 5% CO2 in O2). […] FIG. 1 depicts the response curve of estetrol and PPT in the myometrial arteries. The number of subjects is mentioned in parenthesis.

[2] = tested on: subcutaneous arteries; assay: Ex-vivo relaxation response in subcutaneous arteries on pressure myograph; set-up: species or system human; settings: arteries from normal pregnant women, concentration response (FIG. 2)
Source text: as §1, with “FIG. 2” for “FIG. 1”, “the subcutaneous” for “the myometrial”, “arteries. Again, the” for “arteries. The”

| SMILES | relaxation in myometrial arteries [1] | relaxation in subcutaneous arteries [2] | selective effect: relaxation in myometrial arteries compared to subcutaneous arteries ([1]; comparison of FIGS. 1 and 2) |
| --- | --- | --- | --- |
| CCCc1c(-c2ccc(O)cc2)nn(-c2ccc(O)cc2)c1-c1ccc(O)cc1 [PPT, [1H]-pyrazole-1,3,5-tri-trisphenol, reference compound] | capable of inducing relaxation | capable of inducing relaxation | – |
| C[C@]12CC[C@@H]3c4ccc(O)cc4CC[C@H]3[C@@H]1[C@@H](O)[C@@H](O)[C@@H]2O [estetrol, 1,3,5 (10)-estratrien-3,15α,16α,17β-tetrol] | capable of inducing relaxation | capable of inducing relaxation | more pronounced in the myometrial arteries compared to the subcutaneous arteries |
